Results as given in patent US9066861B2 (priority 2009, dated 2015).

Test: Assay (%) test of APIs in cream, stability study, HPLC method
Assay type: physicochemical
Method: The stability of the product is confirmed by the stability studies performed for 3/6 months as per ICH guidelines.
APIs-stability experiments were carried out (see tables 3-20) using several products that are representative of the present invention. Tests were carried out to observe (or measure as appropriate) the physical appearance of the product, the pH value and assay of the APIs over a period of time. […] Betamethasone Valerate—0.12% (w/w) • ii. Fluticasone Propionate—0.05% (w/w) • iii. Mometasone Furoate—0.1% (w/w) • iv. Dexamethasone Acetate—0.1% (w/w) • v. Hydrocortisone Acetate—1.0% (w/w) • vi. Clobetasol Propionate—0.05% (w/w) • vii. Beclomethasone Dipropionate—0.025% (w/w) • viii. Betamethasone Dipropionate—0.05% (w/w) wherein all percentages are with respect to the final formulation.
The product used for the Stability Studies tests contained approximately 10% extra APIs (overages).

CCC(=O)OCC(=O)[C@@]1(OC(=O)CC)[C@@H](C)C[C@H]2[C@@H]3CCC4=CC(=O)C=C[C@]4(C)[C@@]3(Cl)[C@@H](O)C[C@@]21C [Beclomethasone dipropionate]
Assay (%) (in cream Batch No. SFB-01, 25° C. 60% RH, 1st Month): 108.05% | Assay (%) (in cream Batch No. SFB-01, 25° C. 60% RH, 2nd Month): 108.00% | Assay (%) (in cream Batch No. SFB-01, 25° C. 60% RH, 3rd Month): 107.90% | Assay (%) (in cream Batch No. SFB-01, 30° C. 65% RH, 1st Month): 108.11% | Assay (%) (in cream Batch No. SFB-01, 30° C. 65% RH, 2nd Month): 107.96% | Assay (%) (in cream Batch No. SFB-01, 30° C. 65% RH, 3rd Month): 107.68% | Assay (%) (in cream Batch No. SFB-01, 40° C. 75% RH, 1st Month): 108.04% | Assay (%) (in cream Batch No. SFB-01, 40° C. 75% RH, 2nd Month): 107.98% | Assay (%) (in cream Batch No. SFB-01, 40° C. 75% RH, 3rd Month): 107.88% | Assay (%) (in cream Batch No. SFB-01, Freezthaw, 1st Month): 107.58% | Assay (%) (in cream Batch No. SFB-01, Initial): 108.12% | Assay (%) (in cream Batch No. SFB-01, Temperature cycling, 1st Month): 107.68%

CCC(=O)O[C@]1(C(=O)CCl)[C@@H](C)C[C@H]2[C@@H]3CCC4=CC(=O)C=C[C@]4(C)[C@@]3(F)[C@@H](O)C[C@@]21C [Clobetasol Propionate]
Assay (%) (in cream Batch No. SPC-01, 25° C. 60% RH, 1st Month): 107.40% | Assay (%) (in cream Batch No. SPC-01, 25° C. 60% RH, 2nd Month): 107.34% | Assay (%) (in cream Batch No. SPC-01, 25° C. 60% RH, 3rd Month): 107.30% | Assay (%) (in cream Batch No. SPC-01, 25° C. 60% RH, 6th Month): 107.24% | Assay (%) (in cream Batch No. SPC-01, 30° C. 65% RH, 1st Month): 107.38% | Assay (%) (in cream Batch No. SPC-01, 30° C. 65% RH, 2nd Month): 107.32% | Assay (%) (in cream Batch No. SPC-01, 30° C. 65% RH, 3rd Month): 107.29% | Assay (%) (in cream Batch No. SPC-01, 30° C. 65% RH, 6th Month): 107.22% | Assay (%) (in cream Batch No. SPC-01, 40° C. 75% RH, 1st Month): 107.34% | Assay (%) (in cream Batch No. SPC-01, 40° C. 75% RH, 2nd Month): 107.22% | Assay (%) (in cream Batch No. SPC-01, 40° C. 75% RH, 3rd Month): 107.15% | Assay (%) (in cream Batch No. SPC-01, 40° C. 75% RH, 6th Month): 107.10% | Assay (%) (in cream Batch No. SPC-01, Freezthaw, 1st Month): 107.11% | Assay (%) (in cream Batch No. SPC-01, Initial): 107.41% | Assay (%) (in cream Batch No. SPC-01, Temperature cycling, 1st Month): 107.21%

CCC(=O)O[C@]1(C(=O)SCF)[C@H](C)C[C@H]2[C@@H]3C[C@H](F)C4=CC(=O)C=C[C@]4(C)[C@@]3(F)[C@@H](O)C[C@@]21C [Fluticasone Propionate]
Assay (%) (in cream Batch No. SFC-01, 25° C. 60% RH, 1st Month): 108.54% | Assay (%) (in cream Batch No. SFC-01, 25° C. 60% RH, 2nd Month): 108.42% | Assay (%) (in cream Batch No. SFC-01, 25° C. 60% RH, 3rd Month): 108.21% | Assay (%) (in cream Batch No. SFC-01, 25° C. 60% RH, 6th Month): 108.10% | Assay (%) (in cream Batch No. SFC-01, 30° C. 65% RH, 1st Month): 108.48% | Assay (%) (in cream Batch No. SFC-01, 30° C. 65% RH, 2nd Month): 108.42% | Assay (%) (in cream Batch No. SFC-01, 30° C. 65% RH, 3rd Month): 108.20% | Assay (%) (in cream Batch No. SFC-01, 30° C. 65% RH, 6th Month): 108.11% | Assay (%) (in cream Batch No. SFC-01, 40° C. 75% RH, 1st Month): 108.51% | Assay (%) (in cream Batch No. SFC-01, 40° C. 75% RH, 2nd Month): 108.32% | Assay (%) (in cream Batch No. SFC-01, 40° C. 75% RH, 3rd Month): 108.11% | Assay (%) (in cream Batch No. SFC-01, 40° C. 75% RH, 6th Month): 108.08% | Assay (%) (in cream Batch No. SFC-01, Freezthaw, 1st Month): 108.15% | Assay (%) (in cream Batch No. SFC-01, Initial): 108.56% | Assay (%) (in cream Batch No. SFC-01, Temperature cycling, 1st Month): 108.51%

C[C@@H]1C[C@H]2[C@@H]3CCC4=CC(=O)C=C[C@]4(C)[C@@]3(Cl)[C@@H](O)C[C@]2(C)[C@@]1(OC(=O)c1ccco1)C(=O)CCl [Mometasone Furoate]
Assay (%) (in cream Batch No. SFM-01, 25° C. 60% RH, 1st Month): 108.54% | Assay (%) (in cream Batch No. SFM-01, 25° C. 60% RH, 2nd Month): 108.42% | Assay (%) (in cream Batch No. SFM-01, 25° C. 60% RH, 3rd Month): 108.21% | Assay (%) (in cream Batch No. SFM-01, 25° C. 60% RH, 6th Month): 107.82% | Assay (%) (in cream Batch No. SFM-01, 30° C. 65% RH, 1st Month): 108.48% | Assay (%) (in cream Batch No. SFM-01, 30° C. 65% RH, 2nd Month): 108.42% | Assay (%) (in cream Batch No. SFM-01, 30° C. 65% RH, 3rd Month): 108.20% | Assay (%) (in cream Batch No. SFM-01, 30° C. 65% RH, 6th Month): 107.75% | Assay (%) (in cream Batch No. SFM-01, 40° C. 75% RH, 1st Month): 108.51% | Assay (%) (in cream Batch No. SFM-01, 40° C. 75% RH, 2nd Month): 108.32% | Assay (%) (in cream Batch No. SFM-01, 40° C. 75% RH, 3rd Month): 108.11% | Assay (%) (in cream Batch No. SFM-01, 40° C. 75% RH, 6th Month): 107.88% | Assay (%) (in cream Batch No. SFM-01, Freezthaw, 1st Month): 108.15% | Assay (%) (in cream Batch No. SFM-01, Initial): 108.56% | Assay (%) (in cream Batch No. SFM-01, Temperature cycling, 1st Month): 108.51%

CC(=O)OCC(=O)[C@@]1(O)CC[C@H]2[C@@H]3CCC4=CC(=O)CC[C@]4(C)[C@H]3[C@@H](O)C[C@@]21C [Hydrocortisone Acetate]
Assay (%) (in cream Batch No. HAS-01, 25° C. 60% RH, 1st Month): 107.14% | Assay (%) (in cream Batch No. HAS-01, 25° C. 60% RH, 2nd Month): 107.11% | Assay (%) (in cream Batch No. HAS-01, 25° C. 60% RH, 3rd Month): 107.10% | Assay (%) (in cream Batch No. HAS-01, 30° C. 65% RH, 1st Month): 107.14% | Assay (%) (in cream Batch No. HAS-01, 30° C. 65% RH, 2nd Month): 107.12% | Assay (%) (in cream Batch No. HAS-01, 30° C. 65% RH, 3rd Month): 107.09% | Assay (%) (in cream Batch No. HAS-01, 40° C. 75% RH, 1st Month): 107.14% | Assay (%) (in cream Batch No. HAS-01, 40° C. 75% RH, 2nd Month): 107.12% | Assay (%) (in cream Batch No. HAS-01, 40° C. 75% RH, 3rd Month): 107.05% | Assay (%) (in cream Batch No. HAS-01, Freezthaw, 1st Month): 107.14% | Assay (%) (in cream Batch No. HAS-01, Initial): 107.15% | Assay (%) (in cream Batch No. HAS-01, Temperature cycling, 1st Month): 107.11%

CCCCC(=O)O[C@]1(C(=O)CO)[C@@H](C)C[C@H]2[C@@H]3CCC4=CC(=O)C=C[C@]4(C)[C@@]3(F)[C@@H](O)C[C@@]21C [Betamethasone Valerate]
Assay (%) (in cream Batch No. SBV-01, 25° C. 60% RH, 1st Month): 109.54% | Assay (%) (in cream Batch No. SBV-01, 25° C. 60% RH, 2nd Month): 109.42% | Assay (%) (in cream Batch No. SBV-01, 25° C. 60% RH, 3rd Month): 109.21% | Assay (%) (in cream Batch No. SBV-01, 30° C. 65% RH, 1st Month): 109.48% | Assay (%) (in cream Batch No. SBV-01, 30° C. 65% RH, 2nd Month): 109.42% | Assay (%) (in cream Batch No. SBV-01, 30° C. 65% RH, 3rd Month): 109.20% | Assay (%) (in cream Batch No. SBV-01, 40° C. 75% RH, 1st Month): 109.51% | Assay (%) (in cream Batch No. SBV-01, 40° C. 75% RH, 2nd Month): 109.32% | Assay (%) (in cream Batch No. SBV-01, 40° C. 75% RH, 3rd Month): 109.11% | Assay (%) (in cream Batch No. SBV-01, Freezthaw, 1st Month): 108.25% | Assay (%) (in cream Batch No. SBV-01, Initial): 109.56% | Assay (%) (in cream Batch No. SBV-01, Temperature cycling, 1st Month): 109.51%
